Assay [1] has as its target apolipoprotein E binding to heparin. Briefly: Inhibition of 125I-apolipoprotein E binding to heparin-BSA. The settings on record: Table 2, free peptide; read-out: IC50 Apo E Binding to Heparin. On the procedure: (§1) The peptides were tested as inhibitors of laminin, thrombospondin or apolipoprotein E binding to a heparin-bovine serum albumen conjugate or to a sulfatide in a solid phase assay essentially following the procedure described in Zabrenetzky et al., Cancer Res., Vol. 50, pages 5937-5942 (1990). Sulfatide (0.2 μg/well for thrombospondin binding, 0.6 μg/well for laminin binding) was immobilized in a mixture of 50 ng of phosphatidyl choline, and 30 ng of cholesterol on polyvinyl chloride microtiter plates. Heparin-BSA (0.2 μg/well) was absorbed onto polyvinyl chloride microtiter plate wells by incubation of 50 μl of Dulbecco's PBS for 2 h at 37°. The wells were emptied and filled with 50 mM tris, pH 7.8 containing 150 mM NaCl, 1 mM CaCl2, 0.025% NaN3, and 1% BSA. After 30 minutes, the wells were emptied and 30 μl of various concentrations of potential inhibitory peptides diluted in the same buffer or buffer alone and 30 μl of ^125 I-labeled laminin, thrombospondin or apolipoprotein E (0.2 μg/ml) were added to each well. After 3 hours at 4°, the wells were washed 6 times with 0.15M NaCl, cut from the plate and the bound radioactivity counted. FIGS. 1A-B and 2A-B show the level of thrombospondin binding to sulfatide and heparin-BSA, respectively, in the presence of increasing concetrations of the peptides listed. FIGS. 3 and 4A-B show the level of laminin binding to sulfatide and heparin-BSA, respectively, in the presence of increasing concentrations of the listed peptides.

Assay [2] deals with laminin binding to sulfatide. Description: Inhibition of 125I-laminin binding to sulfatide. The settings on record: Table 2, free peptide. Set-up: species or system mouse. On the procedure: as §1
Assay [3] deals with laminin binding to heparin. Briefly: Inhibition of 125I-laminin binding to heparin-BSA. Set-up: species or system mouse. As to conditions: for IC50: Table 2, free peptide. On the procedure: as §1
Assay [4] has as its target thrombospondin binding to sulfatide. Description: Inhibition of 125I-thrombospondin binding to sulfatide. Set-up: species or system human. The settings on record: Table 1, free peptide. On the procedure:
as §1

The target in assay [5] is thrombospondin binding to heparin. Description: Inhibition of 125I-thrombospondin binding to immobilized heparin-BSA. Set-up: species or system human. As to conditions: for inhibition of thrombospondin binding to heparin, in words: free peptide. On the procedure:
as §1
Microtiter plate wells were coated with heparin-BSA. Heparin-BSA (0.2 μg/well) was adsorbed by incubation in 50 μl of Dulbecco's PBS for 2 h at 370. The wells were emptied, filled with tris-BSA, and incubated for 30 to 60 minutes. The buffer was removed, and labelled thrombospondin was added and incubated in the wells for 3 h at 40. The wells were emptied and washed 4 times with saline. The bottoms of the wells were cut from the plate and counted to quantify thrombospondin binding. Inhibition of thrombospondin binding was determined using peptides diluted in 30 μl of 50 mM tris buffer, pH 7.8, containing 110 mM NaCl, 1 mM CaCl2, 0.025% NaN3, and 1% BSA or buffer alone and 30 μl of ^125 I-labeled TSP (0.2 μg/ml).

The target in assay [6] is basic fibroblast growth factor (FGF-2) binding to heparin. Briefly: Inhibition of 125I-bFGF binding to heparin-BSA conjugate. On the procedure: Binding of ^125 I-bFGF to heparin was determined using an immobilized heparin-BSA conjugate as previously described (Guo, et al. (1992) Proc. Nat'l Acad. Sci. 89:3040-3044). ^125 I-bFGF, prepared as described by Neufeld, et al, (1985), J. Biol. Chem. 260:13860-13868, was added described above, and incubated for 2 hours at 25° C. Bound radioactivity was determined after washing and cutting the wells from the plate. FIGS. 40A, B and C show the inhibition of ^125 I-bFGF binding to heparin by a number of TSP peptide analogs.

Where [7] appears, read: Table 1, free peptide, read-out: IC50 Heparin Binding, inhibition of 125I-thrombospondin binding.
Where [8] appears, read: L-forward peptides, read-out: IC50 Inhibitory Activity.
Where [9] appears, read: retro-inverso peptides, read-out: IC50 for Inhibition of Binding.
The mark [10] stands for this setting: retro-inverso peptides, free, read-out: IC50 Inhibitory Activity, Free Peptide.

The values below come from patent publication US5770563A, “Heparin- and sulfatide binding peptides from the type I repeats of human thrombospondin and conjugates thereof” (The United States of America as represented by the …, priority 1995, dated 1998).

Where two headings read alike, the source gives them in different places. Square brackets hold non-standard residues; d marks the D form. Peptide text beside a SMILES is read from it. Mpa = O=C(O)CCS

For orientation: IC50 means the point on the concentration scale where inhibition reaches its midpoint. As for `CC[C@H](C)[C@H](NC(=O)[C@H](CC(=O)O)NC(=O)[C@H](Cc1c[nH]c2ccccc12)NC(=O)[C@@H]1CCCN1C(=O)[C@H](CO)NC(=O)[C@H](Cc1c[nH]c2ccccc12)NC(=O)[C@@H]1CCCN1C(=O)CN)C(=O)N[C@@H](CS)C(=O)N[C@@H](CO)C(=O)N[C@H](C(=O)N[C@H](C(=O)O)[C@@H](C)O)C(C)C` [Peptide 186, GPWSPWDICSVT] (H-GPWSPWDICSVT-OH), the IC50 in assay [1] turned out to be 52 µM; in assay [2], 35 µM; in assay [3] it was 15 µM; in assay [4], 27 µM; in assay [5] (setting [7]), 8.5 µM.
On to `N[C@@H](CO)C(=O)N[C@@H](Cc1c[nH]cn1)C(=O)N[C@@H](Cc1c[nH]c2ccccc12)C(=O)N[C@@H](CO)C(=O)N1CCC[C@H]1C(=O)N[C@@H](Cc1c[nH]c2ccccc12)C(=O)N[C@@H](CO)C(=O)N[C@@H](CO)C(=O)O` [Peptide 239, SHWSPWSS] (H-SHWSPWSS-OH), for which the IC50 was determined as 250 µM in assay [1]; 12 µM in assay [2]; 11 µM in assay [3]; 10 µM in assay [4]; 5.2 µM in assay [5] (setting [7]). The “inhibition of thrombospondin binding to heparin, in words” value in assay [5] was “more active than the intact dodecapeptide”.
Consider `N[C@@H](Cc1c[nH]c2ccccc12)C(=O)N[C@@H](CO)C(=O)N1CCC[C@H]1C(=O)N[C@@H](Cc1c[nH]c2ccccc12)C(=O)N[C@@H](CO)C(=O)N[C@@H](CO)C(=O)N[C@@H](CS)C(=O)N[C@@H](CO)C(=O)O` [Peptide 240, WSPWSSCS] (H-WSPWSSCS-OH), for which the IC50 was determined as 150 µM in assay [1]; 100 µM in assay [2]; 100 µM in assay [3]; 100 µM in assay [4]; 66 µM in assay [5] (setting [7]).
For `CC(C)[C@H](NC(=O)[C@H](CO)NC(=O)[C@H](CS)NC(=O)[C@H](CO)NC(=O)[C@H](CO)NC(=O)[C@H](Cc1c[nH]c2ccccc12)NC(=O)[C@@H]1CCCN1C(=O)[C@H](CO)NC(=O)[C@@H](N)Cc1c[nH]c2ccccc12)C(=O)N[C@H](C(=O)O)[C@@H](C)O` [Peptide 241, WSPWSSCSVT] (H-WSPWSSCSVT-OH), the 50% inhibitory concentration (IC50) in assay [1] was 180 µM; in assay [2] it was 50 µM; in assay [3] it was 34 µM; in assay [4], 34 µM; in assay [5] (setting [7]) it was 35 µM.
Take `C[C@H](NC(=O)[C@H](Cc1c[nH]cn1)NC(=O)[C@@H](N)CO)C(=O)N[C@@H](CO)C(=O)N1CCC[C@H]1C(=O)N[C@@H](C)C(=O)N[C@@H](CO)C(=O)N[C@@H](CO)C(=O)O` [Peptide 244, SHASPASS] (H-SHASPASS-OH): the IC50 in assay [1], in assay [3], in assay [4] and in assay [5] (setting [7]) was more than 200 µM throughout. Moreover, the “fold less active than the natural sequence SHWSPWSS” value in assay [5] (Trp replaced by Ala) was “more than 100 fold”.
With `NCC(=O)NCC(=O)N[C@@H](Cc1c[nH]c2ccccc12)C(=O)N[C@@H](CO)C(=O)N[C@@H](Cc1c[nH]cn1)C(=O)N[C@@H](Cc1c[nH]c2ccccc12)C(=O)N[C@@H](CO)C(=O)N1CCC[C@H]1C(=O)N[C@@H](Cc1c[nH]c2ccccc12)C(=O)N[C@@H](CO)C(=O)N[C@@H](CO)C(=O)O` [Peptide 256, GGWSHWSPWSS] (H-GGWSHWSPWSS-OH), the IC50 in assay [6] (setting [8]) is more than 40 µM. Also, the “inhibition of laminin binding, in words” value in assay [3] (free peptide) was “increased activity”. The “inhibition of thrombospondin binding to heparin, in words” value in assay [5] is given as “decreased activity”.
With `CC(=O)N[C@H](CS)C(=O)N[C@H](CO)C(=O)N[C@H](CO)C(=O)N[C@H](Cc1c[nH]c2ccccc12)C(=O)N1CCC[C@@H]1C(=O)N[C@H](CO)C(=O)N[C@H](Cc1c[nH]c2ccccc12)C(=O)N[C@H](Cc1c[nH]cn1)C(=O)N[C@H](CO)C(=O)N[C@H](Cc1c[nH]c2ccccc12)C(=O)NCC(=O)NCC(=O)N[C@H](C)C(=O)N[C@H](C)C(=O)N[C@H](CCCCN)C(=O)N[C@H](C)C(=O)N[C@H](CCCNC(=N)N)C(=O)N[C@H](CCCCN)C(N)=O` [Peptide 473, ri-amKRAKAAGGWSHWSPWSSCac] (Ac-[dC][dS][dS][dW][dP][dS][dW][dH][dS][dW]GG[dA][dA][dK][dA][dR][dK]-NH2), the IC50 in assay [6] (setting [9]) is 1.9 µM; in assay [5] (setting [10]), 0.15 µM.
`CC(=O)N[C@H](CS)C(=O)N[C@H](CO)C(=O)N[C@H](CO)C(=O)N[C@H](Cc1c[nH]c2ccccc12)C(=O)N1CCC[C@@H]1C(=O)N[C@H](CO)C(=O)N[C@H](Cc1c[nH]c2ccccc12)C(=O)N[C@H](Cc1c[nH]cn1)C(=O)N[C@H](CO)C(=O)N[C@H](Cc1c[nH]c2ccccc12)C(=O)NCC(=O)NCC(=O)N[C@H](CC(=O)O)C(=O)N[C@H](CCC(N)=O)C(=O)N[C@H](CCCCN)C(=O)N[C@H](C)C(=O)N[C@H](CCCNC(=N)N)C(=O)N[C@H](CCCCN)C(N)=O` [Peptide 474, ri-amKRAKQDGGWSHWSPWSSCac] (Ac-[dC][dS][dS][dW][dP][dS][dW][dH][dS][dW]GG[dD][dQ][dK][dA][dR][dK]-NH2): the IC50 was determined as 0.95 µM in assay [6] (setting [9]) and 0.1 µM in assay [5] (setting [10]).
For `CC(=O)N[C@H](CS)C(=O)N[C@H](CO)C(=O)N[C@H](CO)C(=O)N[C@H](C)C(=O)N1CCC[C@@H]1C(=O)N[C@H](CO)C(=O)N[C@H](C)C(=O)N[C@H](Cc1c[nH]cn1)C(=O)N[C@H](CO)C(=O)N[C@H](C)C(=O)NCC(=O)NCC(=O)N[C@H](CC(=O)O)C(=O)N[C@H](CCC(N)=O)C(=O)N[C@H](CCCCN)C(=O)N[C@H](Cc1ccccc1)C(=O)N[C@H](CCCNC(=N)N)C(=O)N[C@H](CCCCN)C(N)=O` [Peptide 475, ri-amKRFKQDGGASHASPASSCac] (Ac-[dC][dS][dS][dA][dP][dS][dA][dH][dS][dA]GG[dD][dQ][dK][dF][dR][dK]-NH2), in that order: more than 20 µM and 10 µM.
The corresponding values for `CC(=O)N[C@H](CS)C(=O)N[C@H](CO)C(=O)N[C@H](CO)C(=O)N[C@H](Cc1c[nH]c2ccccc12)C(=O)N1CCC[C@@H]1C(=O)N[C@H](CO)C(=O)N[C@H](Cc1c[nH]c2ccccc12)C(=O)N[C@H](Cc1c[nH]cn1)C(=O)N[C@H](CO)C(=O)N[C@H](Cc1c[nH]c2ccccc12)C(=O)NCC(=O)NCC(=O)N[C@H](C)C(=O)N[C@H](CCC(N)=O)C(=O)N[C@H](CCCCN)C(=O)N[C@H](C)C(=O)N[C@H](CCCNC(=N)N)C(=O)N[C@H](CCCCN)C(N)=O` [Peptide 476, ri-amKRAKQAGGWSHWSPWSSCac] (Ac-[dC][dS][dS][dW][dP][dS][dW][dH][dS][dW]GG[dA][dQ][dK][dA][dR][dK]-NH2) are 0.22 µM and 0.03 µM.
As for `C[C@@H](NC(=O)CCS)C(=O)N[C@H](C)C(=O)N[C@H](CO)C(=O)N[C@H](Cc1c[nH]c2ccccc12)C(=O)N[C@H](Cc1c[nH]cn1)C(=O)N[C@H](CO)C(=O)N[C@H](Cc1c[nH]c2ccccc12)C(=O)NCC(=O)N[C@H](C)C(=O)N[C@H](CCC(N)=O)C(=O)N[C@H](CCCCN)C(=O)N[C@H](C)C(=O)N[C@H](CCCNC(=N)N)C(=O)N[C@H](CCCCN)C(N)=O` [Peptide 525, ri-amKRAKQAGWSHWSAAtc] ([Mpa][dA][dA][dS][dW][dH][dS][dW]G[dA][dQ][dK][dA][dR][dK]-NH2), the IC50 was 0.28 µM in assay [6] (setting [9]) and 0.035 µM in assay [5] (setting [10]).
For the molecule `CC(=O)N[C@@H](CCCCN)C(=O)N[C@@H](CCCNC(=N)N)C(=O)N[C@@H](C)C(=O)N[C@@H](CCCCN)C(=O)N[C@@H](CCC(N)=O)C(=O)N[C@@H](C)C(=O)NCC(=O)NCC(=O)N[C@@H](Cc1c[nH]c2ccccc12)C(=O)N[C@@H](CO)C(=O)N[C@@H](Cc1c[nH]cn1)C(=O)N[C@@H](Cc1c[nH]c2ccccc12)C(=O)N[C@@H](C)C(=O)N[C@@H](C)C(=O)N[C@@H](CS)C(N)=O` [acKRAKQAGGWSHWAACam] (Ac-KRAKQAGGWSHWAAC-NH2), the concentration for half-maximal inhibition (IC50) in assay [6] (setting [8]) amounted to 0.41 µM; in assay [5] (L-forward peptides, free, read-out: IC50 Inhibitory Activity, Free Peptide), 0.045 µM.
